Experimental data taken from publication PMC5117899 (Cell chemical biology, 2016).

Molecular target: T1, AcnA (Staphylococcus aureus, UniProt Q2FYS9)
T1 sequence (Q2FYS9 1-901): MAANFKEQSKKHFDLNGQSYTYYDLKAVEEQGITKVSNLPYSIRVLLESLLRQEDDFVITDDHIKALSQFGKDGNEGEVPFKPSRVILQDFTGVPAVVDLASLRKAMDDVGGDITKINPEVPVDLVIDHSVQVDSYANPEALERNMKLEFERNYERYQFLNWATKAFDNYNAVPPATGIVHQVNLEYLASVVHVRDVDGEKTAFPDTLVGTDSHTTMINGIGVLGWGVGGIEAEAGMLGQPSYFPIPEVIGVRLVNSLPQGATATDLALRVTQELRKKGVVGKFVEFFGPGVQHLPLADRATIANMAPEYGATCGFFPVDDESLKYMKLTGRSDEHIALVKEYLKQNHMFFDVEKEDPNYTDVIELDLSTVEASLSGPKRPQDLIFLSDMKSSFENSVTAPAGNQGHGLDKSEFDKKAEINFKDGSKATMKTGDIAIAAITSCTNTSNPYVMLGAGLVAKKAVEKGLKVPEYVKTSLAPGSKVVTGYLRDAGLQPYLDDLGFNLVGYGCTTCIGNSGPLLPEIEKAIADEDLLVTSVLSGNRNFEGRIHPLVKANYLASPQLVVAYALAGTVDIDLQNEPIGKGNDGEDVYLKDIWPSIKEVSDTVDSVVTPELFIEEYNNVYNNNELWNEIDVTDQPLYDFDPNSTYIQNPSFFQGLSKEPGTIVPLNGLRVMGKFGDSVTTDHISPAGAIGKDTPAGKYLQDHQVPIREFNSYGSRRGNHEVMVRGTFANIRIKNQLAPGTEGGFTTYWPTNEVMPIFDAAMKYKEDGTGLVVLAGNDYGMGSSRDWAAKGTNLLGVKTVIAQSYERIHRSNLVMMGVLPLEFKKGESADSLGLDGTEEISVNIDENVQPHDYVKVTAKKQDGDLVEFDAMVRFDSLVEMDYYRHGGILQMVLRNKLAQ
Test: spectrophotometric, cis-aconitate formation at […] nm
Type: biochemical
Settings: Fe-S cluster reconstituted in vitro

O=C(O)C[C@H](C(=O)O)[C@@H](O)C(=O)O [isocitrate]
spectrophotometric, cis-aconitate formation at 240 nm: purified AcnA was determined by monitoring the conversion of isocitrate to cis-aconitate spectrophotometrically
